CCCSc1ccc2nc(NC(=O)OC)[nH]c2c1
solubility (mole fraction)
Settings	in acetone	in ethanol	in ethyl acetate	in isobutyl acetate	in isopropanol	in methanol	in n-butanol	in n-butyl acetate	in n-propanol	in n-propyl acetate
278.15 K	0.00148	5.59e-05	0.00053	0.000491	9.89e-05	9.62e-05	0.00021	0.000553	0.00017	0.000468
283.15 K	0.00173	7.25e-05	0.000596	0.000542	0.000128	0.000114	0.000254	0.000609	0.000192	0.00054
288.15 K	0.00204	9.39e-05	0.000688	0.000594	0.000156	0.000133	0.000298	0.000691	0.00023	0.000598
293.15 K	0.00253	0.00011	0.000805	0.000671	0.000187	0.000157	0.000343	0.000783	0.000276	0.000673
298.15 K	0.00302	0.00014	0.000925	0.000749	0.000234	0.000174	0.000402	0.000873	0.000325	0.000777
303.15 K	0.00349	0.000182	0.00103	0.000799	0.000272	0.000205	0.000473	0.000983	0.000371	0.000858
308.15 K	0.00389	0.000234	0.00119	0.000873	0.000328	0.000257	0.000558	0.0011	0.000423	0.000962
313.15 K	0.00442	0.000297	0.00133	0.000964	0.000394	0.000298	0.00063	0.0012	0.000488	0.00106
318.15 K	0.00528	0.000364	0.0015	0.00109	0.000456	0.000363	0.000738	0.00132	0.000569	0.00117
323.15 K	0.00589	0.000452	0.00167	0.00119	0.000553	0.000428	0.000829	0.00146	0.000624	0.0013
